Experimental data published in article PMC2861598, “Ligand Binding and Crystal Structures of the Substrate-Binding Domain of the ABC Transporter OpuA” (PLoS ONE, 2010).
“And” between values parts separate entries of the source, which are not always exact repeats. Equal entries are not always repeated. “Also recorded” adds a separate entry of the source. Where two headings read alike, the source gives them in different places.

Legend:
[1] = tested on: OpuA reconstituted in proteoliposomes; test: Substrate transport in OpuA-containing proteoliposomes, filter-based assay; type: biochemical, Lactococcus lactis; details: 14C-labeled substrate, 50 µM (51 µM) or 5 mM, up to 30 min, 200 mM KPi pH 7 external
Experimental: Proteoliposomes were prepared as described previously by Geertsma et al. with an ATP regenerating system present and using 200 mM KPi, pH 7, as external medium. The transport activity was measured using a filter-based assay as described by Geertsma et al. in a time dependent way (up to 30 min), using a fixed concentration of 50 µM or 5 mM of substrate.

[2] = target: T1, OpuAC (substrate-binding domain of OpuA) (Lactococcus lactis, UniProt Q9RQ05); test: Ligand binding to purified OpuAC, intrinsic protein fluorescence (direct titration); details: for ΔFmax: pH7.0
T1 sequence (Q9RQ05 320-573): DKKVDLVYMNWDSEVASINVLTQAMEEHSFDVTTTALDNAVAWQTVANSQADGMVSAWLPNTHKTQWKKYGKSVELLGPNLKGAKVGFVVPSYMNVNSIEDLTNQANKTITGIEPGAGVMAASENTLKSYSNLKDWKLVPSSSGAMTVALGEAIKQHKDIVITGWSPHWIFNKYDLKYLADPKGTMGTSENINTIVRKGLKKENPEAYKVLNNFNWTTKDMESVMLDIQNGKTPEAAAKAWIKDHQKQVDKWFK
Experimental: (§1) Fluorescence spectra were obtained with a Fluorolog®-3 (Jobin Yvon) spectrofluorometer. A quartz-cuvette containing 800 µL of protein sample was incubated for 10 minutes at 25°C under constant stirring before stepwise addition of the substrate (or buffer as control), using a Hamilton syringe pump (Harvard apparatus). Samples were incubated for 5 seconds before the fluorescence signal was collected for 20 seconds to obtain an averaged value at each substrate concentration.
(§2) For the intrinsic protein fluorescence measurements, the excitation and emission wavelengths were 295 and 360 nm (and slit widths of 1 and 5 nm), respectively. To determine the salt dependence of ligand-binding to purified OpuA, the buffer was exchanged to various KPi concentrations (12.5–250 mM), pH 7.0, 20% glycerol and 0.05% DDM, using a NAP10 column (GE Healthcare). Corrections for background fluorescence changes were made by titrations with buffer.
(§3) Fluorescence titrations were analyzed essentially as described by Lanfermeijer. Curve fitting was performed in Origin (OriginLab).

OpuAC [3] = target: T2, OpuAC (Lactococcus lactis, UniProt Q9RQ05); test: Competitive inhibition of glycine betaine-induced fluorescence changes; type: binding
T2 sequence (Q9RQ05 320-573): T1 sequence (Q9RQ05 320-573)
Experimental: as §1, §2, §3

[4] = target: OpuA in a lipidic environment; parameters: method as in PMID 14609945; details: read-out: dissociation constant; cited from earlier work
purified OpuA [5] = target: T3, purified OpuA (Lactococcus lactis subsp. lactis, UniProt Q7DAU8); test: Glycine betaine binding to purified DDM-solubilized OpuA, intrinsic protein fluorescence; details: OpuA solubilized in DDM; over all salt concentrations (10–250 mM KPi); read-out: dissociation constant (Kd)
T3 sequence (Q7DAU8 1-573): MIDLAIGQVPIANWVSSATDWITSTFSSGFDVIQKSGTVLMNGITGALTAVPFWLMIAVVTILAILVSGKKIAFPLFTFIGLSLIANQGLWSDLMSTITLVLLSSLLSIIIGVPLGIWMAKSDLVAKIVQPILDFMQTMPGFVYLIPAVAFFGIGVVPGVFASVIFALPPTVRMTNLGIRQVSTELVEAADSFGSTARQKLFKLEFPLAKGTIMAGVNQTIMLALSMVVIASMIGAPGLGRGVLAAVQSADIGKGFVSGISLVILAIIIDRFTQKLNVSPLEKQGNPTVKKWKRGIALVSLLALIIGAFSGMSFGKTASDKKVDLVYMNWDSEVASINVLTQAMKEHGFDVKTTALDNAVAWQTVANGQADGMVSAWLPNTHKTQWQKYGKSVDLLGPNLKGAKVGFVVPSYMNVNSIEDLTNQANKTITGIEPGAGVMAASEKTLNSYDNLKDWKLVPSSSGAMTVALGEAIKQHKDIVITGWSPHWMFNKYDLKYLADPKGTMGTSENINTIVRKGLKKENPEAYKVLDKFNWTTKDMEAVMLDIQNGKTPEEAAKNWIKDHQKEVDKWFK
T3 sequence (Q9KIF7 1-408 partner): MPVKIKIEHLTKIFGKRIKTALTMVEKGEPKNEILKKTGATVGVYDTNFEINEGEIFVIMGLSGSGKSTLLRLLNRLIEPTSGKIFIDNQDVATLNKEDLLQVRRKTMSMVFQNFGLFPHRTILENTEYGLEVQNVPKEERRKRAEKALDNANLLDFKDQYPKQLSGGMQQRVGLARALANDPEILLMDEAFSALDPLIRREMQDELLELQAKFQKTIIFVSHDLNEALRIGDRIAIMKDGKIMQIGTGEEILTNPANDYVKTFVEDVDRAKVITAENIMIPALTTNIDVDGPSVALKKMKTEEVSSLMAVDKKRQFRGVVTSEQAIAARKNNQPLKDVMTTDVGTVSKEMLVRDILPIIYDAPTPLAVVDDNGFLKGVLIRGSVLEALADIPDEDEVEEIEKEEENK

purified OpuA [6] = target: T3, purified OpuA; test: Filter-based assay with radio-labeled glycine betaine (ammonium sulfate precipitation); type: binding
Experimental: This method is based on the principle that upon salting-out of the protein (by ammonium sulfate), the substrate remains trapped in the ligand-binding site. For these measurements, purified OpuA in the presence of 0.05% (w/v) n-dodecyl-β-maltopyranoside (DDM) was mixed such that the protein (at a final concentration of 100 µg/mL) was in a buffer composed of 10, 50 or 250 mM KPi pH7.0, 20% glycerol and 0.05% DDM. The binding assays were carried in a volume of 100 µL. […] The mixture was filtered rapidly through 0.45 µm pore-size cellulose nitrate filters. The filters were washed twice with 2 ml ammonium sulfate solution. Subsequently, the filters were placed in an open plastic vial and dried under heating in an oven at 37°C for 2 hours. The radioactivity on the filters was measured via liquid scintillation counting, using emulsifier plus scintillation liquid (Perkin Elmer). Measurements were corrected for background signals and the average of the corrected data was fitted as described under fluorescence measurements.

purified OpuA [7] = target: T3, purified OpuA; test: Glycine betaine binding to purified DDM-solubilized OpuA, intrinsic protein fluorescence; details: for Kd / ΔFmax: pH7.0
Experimental: as §1, §2, §3

OpuAC [8] = target: T2, OpuAC; test: Isothermal titration calorimetry of glycine betaine binding; details: ITC
Experimental: 200 µL of OpuAC (concentrated to 50 µM in 150 mM KPi, pH 7) was added to the cell. […] Typically, 20 injections of 2 µL volume were made with intervals of 120 seconds between each addition.

OpuAΔCBS = test: Ligand binding to OpuAΔCBS; parameters: species or system Lactococcus lactis; details: data not shown
OpuAΔSBD = test: Ligand binding to OpuAΔSBD; parameters: species or system Lactococcus lactis; details: data not shown

In the case of `O=C(O)[C@@H]1CCCN1` [Proline], the “transport into OpuA-containing proteoliposomes” value [1] is reported as “no accumulation of the proline” and the “transport into OpuA-containing proteoliposomes” value ([1]; listed as proline) is reported as “entered the vesicles slowly but at an equal rate in the proteoliposomes and the liposomes devoid of OpuA”.

For `C[N+](C)(C)CC(O)CC(=O)[O-]` (centres unmarked) [Carnitine], the “transport into OpuA-containing proteoliposomes” value [1] was “not taken up”, the “fluorescence response on direct titration” value ([2]; ∼0.5 µM OpuAC) was “did not reach a stable end-level” and the Ki (OpuAC [3]) was 65000 ± 11000 µM.

In the case of `C[N+](C)(C)CC(=O)[O-]` [glycine betaine], the Kd [4] is listed as roughly 0.5 µM, the Kd (purified OpuA [5]) is listed as 4 to 6 µM and 5 to 6 µM and the “maximal number of binding sites” value (purified OpuA [6]; all salt concentrations) is listed as roughly 3 nmol/mg OpuA. For the same molecule, the Kd (purified OpuA [6]; averaged from duplicate measurements for all salt concentrations (10, 50, 250 mM KPi), 30°C) was 7.3 µM, the “increase of dissociation constant in DDM-solubilized state versus lipidic environment” value (purified OpuA [7]) was “around 10 fold” and the Kd (purified OpuA [7]; 12.5 mM KPi) was 6 ± 0.5 µM. The ΔFmax (purified OpuA [7]; 12.5 mM KPi) was 9.9±0.3%, the Kd (purified OpuA [7]; 50 mM KPi) was 6 ± 0.7 µM and the ΔFmax (purified OpuA [7]; 50 mM KPi) was 10.8±0.4%. For the same molecule, the Kd (purified OpuA [7]; 250 mM KPi) was 5.2 ± 0.2 µM, the ΔFmax (purified OpuA [7]; 250 mM KPi) was 9.3±0.2% and the maximal fluorescence change (purified OpuA [7]; over all salt concentrations) was 9–11%. The “glycine betaine bound per mol of OpuAC” value (OpuAC [8]; 50 µM OpuAC, 150 mM KPi pH 7, 25°C) was 0.7 mol, the Gibbs free energy (OpuAC [8]; 25°C) was -7.5 kcal/mol and the “enthalpy change (ΔH)” value (OpuAC [8]; 25°C) was -3.8 ± 0.1 kcal/mol. The “effect of deletion of the CBS domains on dissociation constant” value (OpuAΔCBS) was “did not alter the dissociation constant”, the glycine betaine binding (OpuAΔSBD) was “did not show any glycine betaine binding” and the “transport into OpuA-containing proteoliposomes” value [1] was “transported against a concentration gradient; also recorded: transport against a large concentration gradient”. The bound glycine betaine ([2]; 19.6 µM OpuAC in 150 mM KPi pH 7.0) was 0.74 mol glycine betaine per mol of OpuAC, the bound substrate ([2]; 19.6 µM OpuAC in 150 mM KPi pH 7.0, data fit) was 14.5 ± 1.6 µM and the ΔFmax ([2]; OpuAC, 12.5 mM KPi) was 23.6±1.1%. For the same molecule, the ΔFmax ([2]; OpuAC, 50 mM KPi) was 23.4±0.9%, the ΔFmax ([2]; OpuAC, 250 mM KPi) was 23.1±1.2% and the maximal fluorescence change ([2]; OpuAC, over all salt concentrations) was 23–24%. For the same molecule, the “amount of glycine betaine bound” value ([2]; very high protein concentration) was 0.74 mol/mol OpuAC.

Work on `C[N+]1(C)CCC[C@H]1C(=O)[O-]` [Proline betaine] yielded a Ki (OpuAC [3]; inhibition of glycine betaine binding, ∼0.5 µM OpuAC) of 41 ± 8 µM and a Ki (OpuAC [3]; inhibition of glycine betaine binding, ∼0.5 µM OpuAC, listed as proline betaine) of roughly 41 µM.
